# According to US8969554B2, “6-acyl-1,2,4-triazine-3,5-dione derivative and herbicides” (Kumiai Chemical Industry Co., Ltd., priority 2010, dated 2015):
# How the values were obtained:
# Format in all cases: in vivo
# Setaria viridis = test: Herbicidal activity by field foliage treatment (Test example 3); conditions: 1000 g effective component per hectare, day 14 after the treatment;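 further: index 0 to 10 in 10% steps of herbicidal effect with 10 meaning complete death and 0 below 10%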
# Procedure: Test example 3 Test for Determining Herbicidal Activity by Field Foliage Treatment A 80 cm^2 wide plastic pot was filled with a field soil and seeds of each of Indian millet and A. retroflexus were sowed and then incubated for 2 weeks in a green house. The wettable powder produced with reference to the Formulation example 1 was diluted water, and applied from the air to entire body of the plant as foliage treatment by using a small sprayer in an amount of 1000 liters per hectare so that the effective component is 1000 g per hectare. After that, the plants were cultivated in a greenhouse, and on day 14 after the treatment, evaluation was made by the criteria described in Table 72 for determining the herbicidal effects.
# Indian millet [1] = test: Herbicidal activity by field soil treatment (Test example 2); parameters: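 index 0 to 10 in 10% steps of herbicidal effect with 10 meaning complete death and 0 below 10%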; conditions: 1000 g effective component per hectare, day 21 after the treatment
# Outline: (§1)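 Pre-emergence soil spray: wettable-powder formulation in water at 1000 g active ingredient per hectare (1000 L/ha) onto freshly sown, soil-covered seeds in field soil. Scoring of herbicidal effect by defined criteria 21 days post-treatment, plants kept in a greenhouse.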
# A. retroflexus [2] = test: as above; parameters: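 index 0 to 10 in 10% steps of herbicidal effect with 10 meaning complete death and 0 below 10%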; conditions: 1000 g effective component per hectare, day 21 after the treatment
# Outline: as §1
# Echinochloa crus-galli [3] = test: as above; parameters: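 index 0 to 10 in 10% steps of herbicidal effect with 10 meaning complete death and 0 below 10%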; conditions: 1000 g effective component per hectare, day 21 after the treatment
# Outline: as §1
# Indian millet [4] = test: Herbicidal activity by field foliage treatment (Test example 3); parameters: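 index 0 to 10 in 10% steps of herbicidal effect with 10 meaning complete death and 0 below 10%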; conditions: 1000 g effective component per hectare, day 14 after the treatment
# Outline: (§2)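 Scoring of herbicidal effect by set criteria took place 14 days post-spray. Plants had been raised 2 weeks in field soil under glass before whole-plant foliar application of diluted wettable powder (1000 g active component/ha, spray volume 1000 L/ha).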
# A. retroflexus [5] = test: as above; parameters: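 index 0 to 10 in 10% steps of herbicidal effect with 10 meaning complete death and 0 below 10%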; conditions: 1000 g effective component per hectare, day 14 after the treatment
# Outline: as §2
# Echinochloa crus-galli [6] = test: as above; parameters: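 index 0 to 10 in 10% steps of herbicidal effect with 10 meaning complete death and 0 below 10%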; conditions: 1000 g effective component per hectare, day 14 after the treatment
# Outline: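 Herbicidal effect was rated on day 14 following a foliar spray of 1000 g active ingredient per hectare, applied as water-diluted wettable powder at 1000 L/ha. Plants had been raised for 2 weeks in field soil under greenhouse conditions before spraying.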
# Scirpus juncoides Rocxb. = test: Herbicidal activity by paddy field soil treatment (Test Example 1); parameters: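 index 0 to 10 in 10% steps of herbicidal effect with 10 meaning complete death and 0 below 10%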; conditions: applied on water surface, 1000 g of effective component per hectare, day 21 after the treatment
# Outline: (§3)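 Pre-emergence water-surface application one day after sowing into flooded (3 cm) paddy soil, dose 1000 g effective component per hectare from a diluted wettable powder. Plants kept in greenhouse and rated for herbicidal effect 21 days post-treatment.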
# Echinochloa oryzicola = test: as above; parameters: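 index 0 to 10 in 10% steps of herbicidal effect with 10 meaning complete death and 0 below 10%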; conditions: 1000 g of effective component per hectare, evaluated on day 21 after the treatment, criteria of Table 72
# Outline: as §3
# Monochoria vaginalis = test: as above; parameters: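 index 0 to 10 in 10% steps of herbicidal effect with 10 meaning complete death and 0 below 10%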; conditions: 1000 g of effective component per hectare, evaluated on day 21 after the treatment, criteria of Table 72
# Outline: as §3
SMILES,"herbicidal effect index, Setaria viridis (Setaria viridis)","herbicidal effect index, Abutilon theophrasti (Indian millet [1])","herbicidal effect index, Amaranthus retroflexus (A. retroflexus [2])","herbicidal effect index, Echinochloa crus-galli (Echinochloa crus-galli [3])","herbicidal effect index, Abutilon theophrasti (Indian millet [4])","herbicidal effect index, Amaranthus retroflexus (A. retroflexus [5])","herbicidal effect index, Echinochloa crus-galli (Echinochloa crus-galli [6])","herbicidal effect index, S. juncoides Rocxb. (Scirpus juncoides Rocxb.)","Herbicidal effects index number, Echinochloa oryzicola (Echinochloa oryzicola)","Herbicidal effects index number, Monochoria vaginalis (Monochoria vaginalis)"
Cn1nc(C(=O)C2=C(O)CCCC2=O)c(=O)n(-c2ccc(Cl)cn2)c1=O [I-185],9,10,10,9,9,10,10,9,8,9
Cn1nc(C(=O)C2=C(O)CCCC2=O)c(=O)n(-c2ccc(C(F)(F)F)cn2)c1=O [I-187],8,9,10,7,9,10,8,10,10,10
C#Cc1ccc(-n2c(=O)c(C(=O)C3=C(O)CCCC3=O)nn(C)c2=O)nc1 [I-463],7,10,7,,9,10,7,10,10,10
Cn1nc(C(=O)C2=C(O)CCCC2=O)c(=O)n(-c2cc(Cl)c(Cl)c(Cl)c2)c1=O [I-465],10,10,10,,10,10,8,10,10,10
Cn1nc(C(=O)C2=C(O)CCCC2=O)c(=O)n(-c2cc(C(F)(F)F)cc(C(F)(F)F)c2)c1=O [I-470],9,7,8,,10,10,8,10,10,10
Cn1nc(C(=O)O)c(=O)n(-c2cc(Cl)c(Cl)c(Cl)c2)c1=O [V-358],10,10,10,,10,10,8,10,10,10
Cn1nc(C(=O)O)c(=O)n(-c2cc(C(F)(F)F)cc(C(F)(F)F)c2)c1=O [V-364],9,7,8,,10,10,8,10,10,10
Cn1nc(C(=O)C2=C(O)C(C)(C)C(=O)C(C)(C)C2=O)c(=O)n(-c2ccccc2)c1=O [VI-1],10,10,10,,10,10,10,10,10,10
Cn1nc(C(=O)C2=C(O)CC(C)(C)CC2=O)c(=O)n(-c2ccccc2)c1=O [VI-6],10,9,10,,10,10,8,10,10,10
